Results reported in US5843887A, “Compositions for delivery of polypeptides, and methods” (Allied Medical Research Associates, priority 1994, dated 1998).

Tests used:
blood glucose level = assay: oral administration of IF and/or porcine insulin to mice, blood glucose level; type: in vivo; details: administered orally (summary statement)
Experimental: The IF was substantially free of R-protein and prepared as in Example 1. […] Blood glucose level was measured with a blood glucose meter standard model Tracer (Boehringer) and produced the following results.

[1] = pH of 8, in the presence of trypsin; cited from earlier work
serum glucose = assay: IF and insulin injected into the sutured duodenal cavity of mice, serum glucose; type: in vivo; details: 50 mg IF and 4 I.U. insulin, decreases up until death, depending on the dose
Experimental: 10 g IF (dosage of 300 Units per mg; one unit will bind one nanogram of vitamin B12) was added to 1 liter of 0.02M phosphate buffered solution and stirred up to 37° C. […] The solution (with a prefered pH of about 6) was stirred at a temperature of 37° C. for 24 hours. The product was then dialysed at 4° C. and dehydrated by lyophilization.

[2] = doses of 100 to 500 μg, as in pernicious anemia; cited from earlier work

For insulin, the “change in serum glucose after oral administration” value (blood glucose level) was “no change in serum glucose”.

For “IF: glycoprotein with a molecular weight of 50 kDa, 351 amino acids, binds cobalamin”, the “affinity for cobalamin relative to that of R protein” value [1] is listed as 150 times.

With “Insulin alone: human biogenetic insulin (Novo Nordisk) of Example 1, injected alone” the “change in serum glucose” value (serum glucose) was “did not cause a fall in serum glucose”.

In the case of cyanocobalamin, the “fraction of dose absorbed (passive absorption)” value [2] is given as 1%.
